Data as given in US5389621A, “Method of enhancing the anticoagulant effects of aspirin using salicylamide” (University of Medicine and Dentistry of New Jersey, priority 1994, dated 1995).

Columns and labels:
[1] = oral, rats; cited from earlier work
[2] = tested on: lyso-PAF:acetyl-CoA acetyltransferase; settings: cited from earlier work
lipooxygenase pathway = settings: cited from earlier work
[3] = Acid-hydrolyzed fraction of SA in liver, kidney and plasma after 14C-aspirin; settings: low or high dose combinations
Procedure: Forty-eight rats were divided into two groups. The first group of rats was administered ASA, SAM or their combination in a dose approximately equal (w/w) to that in the commercially available combinations, e.g., BC® formula, when administered to humans, i.e., 10 and 3 mg/kg of ASA and SAM, respectively. The second group was administered double the dosage received by the first group.
For each sample to be analyzed, 2 aliquots each of 300 mg of tissue (liver or kidney) or 100 μl of plasma, were placed in polyethylene wide-pore tubes (Fisherbrand) along with 0.5 ml of physiological saline. The tissues were homogenized using an electrical homogenizer (Polytron, Brinkmann Instruments, Westbury, N.Y.) on high speed for 2 minutes for each sample. The tubes were dipped in ice during this procedure to minimize any loss of SA by sublimation from the heat generated by the high speed of the homogenization.
The homogenates were transferred by pipette to pyrex screw-top test tubes and the tubes were then divided into 2 groups: […]
The supernatants were filtered through disposable 0.45 μm Acrodisc filters and 100 μl were injected onto HPLC. […] The radioactivity in the vials was measured by Beckman LS scintillation counter and the difference in radioactivity between the control vials and the acidhydrolyzed ones was indicative of SA conjugates as well as part of the protein-bound SA in the tissue samples. […]

[4] = cited from earlier work

| Change of acid-hydrolyzed SA fraction in liver [3] | SMILES | Intestinal and hepatic extraction and/or metabolism of oral dose [1] | Effect on lyso-PAF:acetyl-CoA acetyltransferase [2] | Effect on the lipooxygenase pathway (lipooxygenase pathway) | Biliary excretion ([4]; in vivo) | Bound to plasma proteins ([4]; in vivo) | Hydrolysis in vivo to a salicylate ([4]; in vivo) | First-pass metabolism of the administered dose ([4]; oral) |
| --- | --- | --- | --- | --- | --- | --- | --- | --- |
| – | CC(=O)Oc1ccccc1C(=O)O [ASA, acetylsalicylic acid] | More than 60% | inhibitory effect | reversibly block the lipooxygenase pathway | – | – | – | – |
| did not affect | NC(=O)c1ccccc1O [SAM, Salicylamide] | – | – | – | negligible | About 50% | not hydrolyzed in vivo to form a salicylate | up to 70% |
